Data on 18 compounds can be found in patent US8846699B2, “Quinazoline derivatives as a multiplex inhibitor and method for the preparation thereof” (Hanmi Pharm. Co., Ltd., priority 2005, dated 2014).

The target of one test is EGFR1 (HER-1) (Homo sapiens (Human), UniProt P00533). Nature of the test: EGFR1 (HER-1) enzyme assay, fluorescence polarization. The note with it: 100 μM ATP, poly(Glu, Tyr) substrate. It counts as biochemical. On the technique in general: Fluorescence polarisation rises when a labelled molecule tumbles more slowly, as on binding a larger partner.
In test [1] the test system is colon and rectal cancer cell line, SW-620. Nature of the test: Inhibitory effect on growth of cancer cell line SW-620, SRB. It counts as cell-based. The settings on record: Homo sapiens, 72 h, not having overexpressed EGFR and EGFR2. In outline: (§1)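 Growth inhibition was measured by sulforhodamine-B staining (absorbance 570 nm) of TCA-fixed cells after 72 h compound exposure at 37 °C, 5% CO2. Test concentrations ran from 10 μM in 10-fold steps to 10^−4, with DMSO below 1%, in 10% FBS DMEM.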

Another test deals with VEGFR2 (KDR) (Homo sapiens (Human), UniProt P35968). Nature of the test: VEGFR2 (KDR) enzyme assay, fluorescence polarization. It counts as biochemical. The settings on record: 5 μM ATP, poly(Glu, Tyr) substrate. In outline:
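Buffer: 20 mM HEPES pH 7.4 with 5 mM MgCl2, 2 mM MnCl2 and 50 μM Na3VO4. Compound (0.0001–10 μM) was premixed 10 min with VEGFR2 (200 ng/10 μl), then poly(Glu,Tyr) substrate (10 ng/ml) and 5 μM ATP were added for 1 h at room temperature. EDTA-quenched samples were read by FP after 30 min with antibody and tracer.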

Test [2] relates to breast cancer cell line, SK-Br3. Briefly: Inhibitory effect on growth of cancer cell line SK-Br3, SRB. It counts as cell-based. The note with it: Homo sapiens, SK-BR-3, 72 h, overexpressed EGFR2 (HER-2). In outline: as §1
The test system of test [3] is Human Umbilical Vein Endothelial Cell (HUVEC). Nature of the test: Inhibitory effect on growth of human umbilical vein endothelial cell (HUVEC), MTS. The settings on record: Homo sapiens, 96 h, 10 ng/ml VEGF, absorbance 490 nm. It counts as cell-based.
The subject of test [4] is skin cancer cell line, A431. Briefly: Inhibitory effect on growth of cancer cell line A431, SRB. It counts as cell-based. The settings on record: Homo sapiens, A-431, 72 h, overexpressed EGFR1 (HER-1). In outline: as §1

Structures are written as SMILES.

Sequence of VEGFR2 (KDR) (P35968 20-1356): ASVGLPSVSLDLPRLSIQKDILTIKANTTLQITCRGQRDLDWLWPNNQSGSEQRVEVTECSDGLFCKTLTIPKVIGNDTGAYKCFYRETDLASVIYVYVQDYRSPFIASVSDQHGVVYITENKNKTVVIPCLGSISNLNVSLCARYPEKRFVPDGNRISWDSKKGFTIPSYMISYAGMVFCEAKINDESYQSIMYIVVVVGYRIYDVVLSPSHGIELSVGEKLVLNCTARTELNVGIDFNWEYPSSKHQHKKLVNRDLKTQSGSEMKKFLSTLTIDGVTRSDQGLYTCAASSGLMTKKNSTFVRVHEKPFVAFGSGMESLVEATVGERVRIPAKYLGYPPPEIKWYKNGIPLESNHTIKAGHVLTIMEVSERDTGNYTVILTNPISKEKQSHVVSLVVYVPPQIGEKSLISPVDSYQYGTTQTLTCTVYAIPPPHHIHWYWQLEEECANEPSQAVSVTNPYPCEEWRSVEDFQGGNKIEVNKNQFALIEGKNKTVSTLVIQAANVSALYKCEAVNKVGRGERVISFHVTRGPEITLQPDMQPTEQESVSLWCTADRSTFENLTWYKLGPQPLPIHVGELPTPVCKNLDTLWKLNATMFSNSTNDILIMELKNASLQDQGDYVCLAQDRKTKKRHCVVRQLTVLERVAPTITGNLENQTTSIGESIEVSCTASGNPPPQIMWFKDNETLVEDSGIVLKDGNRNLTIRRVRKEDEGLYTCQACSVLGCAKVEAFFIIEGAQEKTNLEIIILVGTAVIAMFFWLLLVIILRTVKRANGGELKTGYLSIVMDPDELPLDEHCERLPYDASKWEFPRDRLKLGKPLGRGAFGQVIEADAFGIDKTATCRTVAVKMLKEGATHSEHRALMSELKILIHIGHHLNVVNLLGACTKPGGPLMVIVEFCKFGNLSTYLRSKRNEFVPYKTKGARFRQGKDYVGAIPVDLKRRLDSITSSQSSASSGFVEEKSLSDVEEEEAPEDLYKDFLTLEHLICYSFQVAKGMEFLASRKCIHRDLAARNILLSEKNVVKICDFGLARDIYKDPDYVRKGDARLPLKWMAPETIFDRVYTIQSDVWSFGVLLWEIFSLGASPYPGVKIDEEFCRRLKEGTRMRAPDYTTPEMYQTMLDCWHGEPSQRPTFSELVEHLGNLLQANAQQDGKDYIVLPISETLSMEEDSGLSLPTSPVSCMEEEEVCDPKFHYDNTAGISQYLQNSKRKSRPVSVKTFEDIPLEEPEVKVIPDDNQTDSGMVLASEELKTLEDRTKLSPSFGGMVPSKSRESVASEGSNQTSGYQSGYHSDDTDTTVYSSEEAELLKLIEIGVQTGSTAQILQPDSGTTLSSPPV
Sequence of EGFR1 (HER-1) (P00533 25-1210): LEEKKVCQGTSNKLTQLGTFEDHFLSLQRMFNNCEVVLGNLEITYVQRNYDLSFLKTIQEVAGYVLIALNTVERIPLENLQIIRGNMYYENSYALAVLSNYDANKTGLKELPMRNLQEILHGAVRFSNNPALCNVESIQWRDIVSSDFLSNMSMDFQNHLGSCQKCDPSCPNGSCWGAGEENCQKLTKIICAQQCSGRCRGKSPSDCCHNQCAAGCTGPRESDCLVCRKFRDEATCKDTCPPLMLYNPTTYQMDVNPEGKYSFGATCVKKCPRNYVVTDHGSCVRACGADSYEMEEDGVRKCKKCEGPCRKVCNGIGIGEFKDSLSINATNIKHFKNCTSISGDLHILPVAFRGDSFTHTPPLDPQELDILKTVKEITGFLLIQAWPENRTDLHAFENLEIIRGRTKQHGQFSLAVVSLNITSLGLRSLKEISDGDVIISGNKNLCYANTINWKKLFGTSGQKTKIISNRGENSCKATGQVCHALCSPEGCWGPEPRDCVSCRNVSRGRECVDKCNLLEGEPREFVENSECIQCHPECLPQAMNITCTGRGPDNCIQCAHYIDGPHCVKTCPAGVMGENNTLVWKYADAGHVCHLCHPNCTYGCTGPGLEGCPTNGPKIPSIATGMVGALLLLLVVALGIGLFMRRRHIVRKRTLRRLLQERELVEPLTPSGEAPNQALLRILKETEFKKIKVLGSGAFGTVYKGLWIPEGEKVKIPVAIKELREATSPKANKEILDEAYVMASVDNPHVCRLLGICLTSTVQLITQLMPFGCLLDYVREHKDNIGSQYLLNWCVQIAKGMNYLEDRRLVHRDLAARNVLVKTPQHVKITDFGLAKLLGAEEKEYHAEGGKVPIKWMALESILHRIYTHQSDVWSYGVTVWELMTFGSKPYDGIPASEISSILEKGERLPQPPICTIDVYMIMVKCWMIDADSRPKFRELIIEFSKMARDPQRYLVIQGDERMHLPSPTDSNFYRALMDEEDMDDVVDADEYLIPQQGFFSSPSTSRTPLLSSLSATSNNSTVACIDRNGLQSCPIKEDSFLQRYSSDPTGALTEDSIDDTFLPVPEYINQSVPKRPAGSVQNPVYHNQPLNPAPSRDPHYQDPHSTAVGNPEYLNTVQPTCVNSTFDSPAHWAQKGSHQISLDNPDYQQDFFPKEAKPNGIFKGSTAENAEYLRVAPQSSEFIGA

For the compound `C=CC(=O)Nc1cc2c(Nc3ccc(Br)cc3F)ncnc2cc1OCCNC(=O)CCN1CCCCC1` [Example 104, N-{4-(4-bromo-2-fluoro-phenylamino)-7-[2-(3-piperidin-1-yl-propionylamino)-ethoxy]-quinazolin-6-yl}-acrylamide], the concentration for half-maximal inhibition (IC50) is 14 nM on EGFR1 (HER-1); 5260 nM in test [1]; 945 nM at VEGFR2 (KDR); 93 nM in test [2]; 855 nM in test [3]; 16 nM in test [4].

Consider `C=CC(=O)Nc1cc2c(Nc3ccc(Br)cc3F)ncnc2cc1OCCNC(=O)C1CCCN1C(C)=O` (stereo not drawn) [Example 105, 1-acetyl-pyrrolidine-2-carboxylic acid {2-[6-acryloylamino-4-(4-bromo-2-fluoro-phenylamino)-quinazolin-7-yloxy]-ethyl}-amide], for which the IC50 against EGFR1 (HER-1) was 25 nM; in test [1], 6700 nM; at VEGFR2 (KDR), 654 nM; in test [2], 100 nM; in test [3], 654 nM; in test [4], 30 nM.

As for `C=CC(=O)Nc1cc2c(Nc3ccc(Br)cc3F)ncnc2cc1OCCNC(=O)C1CCCN1C(=O)CC` (stereo not drawn) [Example 106, 1-propionyl-pyrrolidine-2-carboxylic acid {2-[6-acryloylamino-4-(4-bromo-2-fluoro-phenylamino)-quinazolin-7-yloxy]-ethyl}-amide], the IC50 at EGFR1 (HER-1) worked out at 196 nM; in test [1], 2800 nM; against VEGFR2 (KDR), 853 nM; in test [2] it was 311 nM; in test [3] it was 951 nM; in test [4], 264 nM.

Take `C=CC(=O)Nc1cc2c(Nc3ccc(Br)cc3F)ncnc2cc1OCCNC(=O)CN1CCCC1` [Example 107, N-{4-(4-bromo-2-fluoro-phenylamino)-7-[2-(2-pyrrolidin-1-yl-acetylamino)-ethoxy]-quinazolin-6-yl}-acrylamide]: the IC50 on EGFR1 (HER-1) amounted to 45 nM; in test [1] it was 3590 nM; against VEGFR2 (KDR), 200 nM; in test [2] it was 119 nM; in test [3], 289 nM; in test [4], 48 nM.

Take `C=CC(=O)Nc1cc2c(Nc3ccc(Br)cc3F)ncnc2cc1OCCNC(=O)CN1CC=CC1` [Example 108, N-{4-(4-bromo-2-fluoro-phenylamino)-7-[2-(2-2,5-dihydro-pyrrol-1-yl-acetylamino)-ethoxy]-quinazolin-6-yl}-acrylamide]: the concentration for half-maximal inhibition (IC50) at EGFR1 (HER-1) was determined as 32 nM; in test [1], 2950 nM; at VEGFR2 (KDR), 486 nM; in test [2] it was 103 nM; in test [3], 497 nM; in test [4], 41 nM.

For the compound `C=CC(=O)Nc1cc2c(Nc3ccc(Br)cc3F)ncnc2cc1OCC1=NCCO1` [Example 109, N-[4-(4-bromo-2-fluoro-phenylamino)-7-(4,5-dihydro-oxazol-2-ylmethoxy)-quinazolin-6-yl]-acrylamide], the half-inhibitory concentration (IC50) was 125 nM at EGFR1 (HER-1); 10000 nM in test [1]; 478 nM on VEGFR2 (KDR); 572 nM in test [2]; 486 nM in test [3]; 147 nM in test [4].

Regarding `C=CC(=O)Nc1cc2c(Nc3ccc(Br)cc3F)ncnc2cc1OCCNC(=O)CN1CCC1` [Example 110, N-[7-[2-(2-azetidin-1-yl-acetylamino)-ethoxy]-4-(4-bromo-2-fluoro-phenylamino)-quinazolin-6-yl]-acrylamide], the 50% inhibitory concentration (IC50) amounted to 987 nM at EGFR1 (HER-1); 4590 nM in test [1]; 951 nM at VEGFR2 (KDR); 1360 nM in test [2]; 956 nM in test [3]; 1020 nM in test [4].

Turning to `C=CC(=O)Nc1cc2c(Nc3ccc(Cl)cc3Cl)ncnc2cc1OCCNC(C)=O` [Example 113, N-[7-(2-acetylamino-ethoxy)-4-(4-chloro-2-chloro-phenylamino)-quinazolin-6-yl]-acrylamide], the IC50 against EGFR1 (HER-1) worked out at 49 nM; in test [1], 2200 nM; against VEGFR2 (KDR), 268 nM; in test [2] it was 289 nM; in test [3], 369 nM; in test [4], 58 nM.

Take `C=CC(=O)Nc1cc2c(Nc3ccc(Br)cc3Cl)ncnc2cc1OCCNC(C)=O` [Example 115, N-[7-(2-acetylamino-ethoxy)-4-(4-bromo-2-chloro-phenylamino)-quinazolin-6-yl]-acrylamide]: the concentration for half-maximal inhibition (IC50) amounted to 42 nM at EGFR1 (HER-1); 10000 nM in test [1]; 854 nM against VEGFR2 (KDR); 897 nM in test [2]; 934 nM in test [3]; 45 nM in test [4].

Consider `C=CC(=O)Nc1cc2c(Nc3ccc(Cl)cc3F)ncnc2cc1OCCNC(=O)CN(C)C` [Example 116, N-{4-(4-chloro-2-fluoro-phenylamino)-7-[2-(2-dimethylamino-acetylamino)-ethoxy]-quinazolin-6-yl}-acrylamide], for which the 50% inhibitory concentration (IC50) against EGFR1 (HER-1) was found to be 419 nM; in test [1], 2960 nM; against VEGFR2 (KDR) it was 758 nM; in test [2] it was 253 nM; in test [3] it was 951 nM; in test [4], 437 nM.

As to `C=CC(=O)Nc1cc2c(Nc3cccc(Cl)c3F)ncnc2cc1OCCNC(=O)CN(C)C` [Example 117, N-[4-(3-chloro-2-fluoro-phenylamino)-7-{2-[2-(dimethylamino)-acetamido]-ethoxy}quinazolin-6-yl]-acrylamide], the concentration for half-maximal inhibition (IC50) on EGFR1 (HER-1) amounted to 924 nM; in test [1], 10000 nM; on VEGFR2 (KDR), 945 nM; in test [2], 1260 nM; in test [3], 998 nM; in test [4] it was 1240 nM.

For `C=CC(=O)Nc1cc2c(Nc3ccc(F)c(F)c3F)ncnc2cc1OCCNC(C)=O` [Example 118, N-[7-(2-acetylamino-ethoxy)-4-(2,3,4-trifluoro-phenylamino)-quinazolin-6-yl]-acrylamide], the 50% inhibitory concentration (IC50) against EGFR1 (HER-1) turned out to be 14 nM; in test [1], 725 nM; on VEGFR2 (KDR), 489 nM; in test [2] it was 79 nM; in test [3], 681 nM; in test [4], 15 nM.

Turning to `C=CC(=O)Nc1cc2c(Nc3cc(F)c(Br)cc3F)ncnc2cc1OCCNC(C)=O` [Example 119, N-[7-(2-acetylamino-ethoxy)-4-(4-bromo-2,5-difluoro-phenylamino)-quinazolin-6-yl]-acrylamide], the half-inhibitory concentration (IC50) is 12 nM on EGFR1 (HER-1); 2890 nM in test [1]; 782 nM against VEGFR2 (KDR); 178 nM in test [2]; 921 nM in test [3]; 14 nM in test [4].

Regarding `C=CC(=O)Nc1cc2c(Nc3cc(Cl)c(Cl)cc3F)ncnc2cc1OCCNC(C)=O` [Example 121, N-[7-(2-acetylamino-ethoxy)-4-(4,5-dichloro-2-fluoro-phenylamino)-quinazolin-6-yl]-acrylamide], the IC50 against EGFR1 (HER-1) is 5 nM; in test [1], 10000 nM; at VEGFR2 (KDR), 153 nM; in test [2], 22 nM; in test [3] it was 383 nM; in test [4] it was 7 nM.

Take `C=CC(=O)Nc1cc2c(Nc3cc(Cl)c(Cl)cc3Cl)ncnc2cc1OCCNC(C)=O` [Example 122, N-[7-(2-acetylamino-ethoxy)-4-(2,4,5-trichloro-phenylamino)-quinazolin-6-yl]-acrylamide]: the half-maximal inhibitory concentration (IC50) on EGFR1 (HER-1) worked out at 876 nM; in test [1], 2320 nM; against VEGFR2 (KDR) it was 789 nM; in test [2], 1020 nM; in test [3], 913 nM; in test [4], 1030 nM.

As to `C=CC(=O)Nc1cc2c(Nc3c(F)cc(Br)cc3F)ncnc2cc1OCCNC(=O)CN(C)C` [Example 123, N-[4-(4-bromo-2,6-difluorophenylamino)-7-{2-[2-(dimethylamino)-acetamido]-ethoxy}-quinazolin-6-yl]-acrylamide], the IC50 against EGFR1 (HER-1) came to 175 nM; in test [1], 10000 nM; at VEGFR2 (KDR), 268 nM; in test [2] it was 126 nM; in test [3] it was 328 nM; in test [4] it was 181 nM.

As for `C=CC(=O)Nc1cc2c(Nc3ccc(Br)c(F)c3F)ncnc2cc1OCCNC(=O)CN(C)C` [Example 124, N-{4-(4-bromo-2,3-difluoro-phenylamino)-7-[2-(2-dimethylamino-acetylamino)-ethoxy]-quinazolin-6-yl}-acrylamide], the half-inhibitory concentration (IC50) against EGFR1 (HER-1) is 18 nM; in test [1] it was 2680 nM; at VEGFR2 (KDR), 136 nM; in test [2], 60 nM; in test [3], 268 nM; in test [4] it was 19 nM.

`C=CC(=O)Nc1cc2c(Nc3ccc(Br)c(F)c3F)ncnc2cc1OCCNC(=O)CCN(CC)CC` [Example 125, N-{4-(4-bromo-2,3-difluoro-phenylamino)-7-[2-(3-diethylamino-propionylamino)-ethoxy]-quinazolin-6-yl}-acrylamide]: the IC50 against EGFR1 (HER-1) came out at 19 nM; in test [1], 2980 nM; at VEGFR2 (KDR) it was 218 nM; in test [2], 242 nM; in test [3] it was 657 nM; in test [4] it was 22 nM.

The term IC50 denotes the midpoint of a concentration-inhibition curve. Higher therefore signals weaker potency in that assay.
